Experimental data as given in patent US20250346602A1, “LACTAM SUBSTITUTED IMIDAZOPYRIDAZINE IL-17A MODULATORS AND USES THEREOF” (DICE ALPHA, INC., priority 2022, published 2025).

Biological target: T1, IL-17A/A (Homo sapiens, UniProt Q16552)
T1 construct: purchased Genscript Z03228
T1 sequence (Q16552 24-155): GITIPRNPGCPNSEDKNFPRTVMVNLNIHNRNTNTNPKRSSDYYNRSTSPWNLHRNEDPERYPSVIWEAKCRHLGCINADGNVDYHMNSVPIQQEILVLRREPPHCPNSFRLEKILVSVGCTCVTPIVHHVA
Experiment: IL-17A/A HEK-Blue cell assay
Type: cell-based
Details: HEK-Blue IL-17A reporter cell line (HEK 293), IL-17A/A stimulation, 20 hours incubation, SEAP read at A630
Procedure, shortened: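 IC50 came from a 4-parameter fit of SEAP read at A630 (Quanti-Blue). Compound was titrated to a top final concentration of 10, 1 or 0.3 uM with 0.1% final DMSO and added just before IL-17A/A. Incubation lasted 20 hours in HEK293 cells engineered with IL-17RA, IL-17RC, Act1 and an NFκB-SEAP reporter.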

Row | IC50 [µM] | SMILES
1 | < 0.1 | CCn1nccc1C(=O)N[C@H](c1cn2nc(CC3C[C@@H](C(F)(F)F)CNC3=O)c(C(C)(C)O)cc2n1)C1CCC(F)(F)CC1 (stereo partly drawn) [Compound 186, N-((1S)-(4,4-difluorocyclohexyl)(7-(2-hydroxypropan-2-yl)-6-(((5R)-2-oxo-5-(trifluoromethyl)piperidin-3-yl)methyl)imidazo[1,2-b]pyridazin-2-yl)methyl)-1-ethyl-1H-pyrazole-5-carboxamide]
2 | 0.1 to 1 | CCn1nccc1C(=O)N[C@H](c1cn2nc(CC3C[C@@H](C(F)(F)F)CNC3=O)c(N(C)CC(F)(F)F)cc2n1)C1CCC(F)(F)CC1 (single isomer, unassigned) [Compound 182]
3 | > 1 | CCn1nccc1C(=O)N[C@H](c1cn2ncc(CC3CCNC3=O)cc2n1)C1CCCCCC1 (stereo partly shown) [Compound 203, N-((1 S)-cycloheptyl(7-((2-oxopyrrolidin-3-yl)methyl)imidazo[1,2-b]pyridazin-2-yl)methyl)-1-ethyl-1H-pyrazole-5-carboxamide]
4 | < 0.1 | O=C(N[C@H](c1cn2nc(CC3C[C@H](C(F)(F)F)CNC3=O)ccc2n1)[C@H]1CCCC(F)(F)C1)c1nonc1C1CC1 (stereo partly drawn) [Compound 155, 4-cyclopropyl-N—((S)-((S)-3,3-difluorocyclohexyl)(6-(((5S)-2-oxo-5-(trifluoromethyl)piperidin-3-yl)methyl)imidazo[1,2-b]pyridazin-2-yl)methyl)-1,2,5-oxadiazole-3-carboxamide]
5 | 0.1 to 1 | O=C(N[C@H](c1cn2nc(CC3C[C@H](C(F)(F)F)CNC3=O)ccc2n1)[C@@H]1CCCC(F)(F)C1)c1nonc1C1CC1 (stereo partly drawn) [Compound 156, 4-cyclopropyl-N—((S)-((R)-3,3-difluorocyclohexyl)(6-(((5S)-2-oxo-5-(trifluoromethyl)piperidin-3-yl)methyl)imidazo[1,2-b]pyridazin-2-yl)methyl)-1,2,5-oxadiazole-3-carboxamide]
6 | > 1 | CCn1nccc1C(=O)N[C@H](c1cn2ncc(CC3C[C@@H](C(F)(F)F)NC3=O)cc2n1)C(C1CC1)C1CC1 (single isomer, unassigned) [Compound 201]
7 | < 0.1 | CC(C)n1nccc1C(=O)N[C@H](c1cn2nc(CC3C[C@H](C(F)(F)F)CNC3=O)ccc2n1)[C@@H]1CCCC(F)(F)C1 (stereo partly drawn) [Compound 160, N-((1S)—((R)-3,3-difluorocyclohexyl)(6-(((5S)-2-oxo-5-(trifluoromethyl)piperidin-3-yl)methyl)imidazo[1,2-b]pyridazin-2-yl)methyl)-1-isopropyl-1H-pyrazole-5-carboxamide]
8 | < 0.1 | CCn1nccc1C(=O)N[C@H](c1cn2ncc(CC3C[C@@H](C(F)(F)F)NC3=O)cc2n1)[C@H]1CC[C@H](C)CC1 (single isomer, unassigned) [Compound 212]

Second part, the compound before the results:

Row | SMILES | IC50 [µM]
9 | CCn1nccc1C(=O)N[C@H](c1cn2nc(CC3C[C@@H](C(F)(F)F)NC3=O)ccc2n1)[C@H]1CC[C@H](C)CC1 (single isomer, unassigned) [Compound 16] | 0.1 to 1
10 | CCn1nccc1C(=O)N[C@H](c1cn2nc(CC3C(=O)NCC3C(F)(F)F)ccc2n1)C(C1CC1)C1CC1 (single isomer, unassigned) [Compound 46] | > 1
11 | O=C(N[C@H](c1cn2nc(CC3C[C@@H](C(F)(F)F)CNC3=O)ccc2n1)[C@H]1CCCC(F)(F)C1)c1nonc1C1CC1 (stereo partly drawn) [Compound 144, 4-cyclopropyl-N—((S)-((S)-3,3-difluorocyclohexyl)(6-(((5R)-2-oxo-5-(trifluoromethyl)piperidin-3-yl)methyl)imidazo[1,2-b]pyridazin-2-yl)methyl)-1,2,5-oxadiazole-3-carboxamide] | < 0.1
12 | CCn1nccc1C(=O)NC(c1cn2nc(CC3CC(F)(F)CNC3=O)ccc2n1)C1CCCC(F)(F)C1 (mixture of isomers) [Compound 32, N-((6-((5,5-difluoro-2-oxopiperidin-3-yl)methyl)imidazo[1,2-b]pyridazin-2-yl)(3,3-difluorocyclohexyl)methyl)-1-ethyl-1H-pyrazole-5-carboxamide] | 0.1 to 1
13 | CCn1nccc1C(=O)N[C@H](c1cn2nc(CC3CC(C)(F)CNC3=O)ccc2n1)C(C1CC1)C1CC1 (mixture of isomers) [Compound 40, N-((1S)-2,2-dicyclopropyl-1-(6-((5-fluoro-5-methyl-2-oxopiperidin-3-yl)methyl)imidazo[1,2-b]pyridazin-2-yl)ethyl)-1-ethyl-1H-pyrazole-5-carboxamide] | > 1
14 | CCn1nccc1C(=O)N[C@H](c1cn2nc(CC3CC(C(F)(F)F)CNC3=O)ccc2n1)C1CCCCCC1 (stereo partly shown) [Compound 3, N-((1 S)-cycloheptyl(6-((2-oxo-5-(trifluoromethyl)piperidin-3-yl)methyl)imidazo[1,2-b]pyridazin-2-yl)methyl)-1-ethyl-1H-pyrazole-5-carboxamide] | < 0.1
15 | CCn1nccc1C(=O)N[C@H](c1cn2nc(CC3(C)C[C@@H](C(F)(F)F)CNC3=O)ccc2n1)[C@H]1CC[C@H](C)CC1 (single isomer, unassigned) [Compound 67] | 0.1 to 1
16 | CCn1nccc1C(=O)N[C@H](c1cn2nc(CC3CC(C4CC4)CNC3=O)ccc2n1)C1CCC(F)(F)CC1 (single isomer, unassigned) [Compound 71] | 0.1 to 1
17 | CCn1nccc1C(=O)N[C@H](c1cn2nc(CC3CC(F)(F)CNC3=O)c(C)cc2n1)C1CCC(F)(F)CC1 (single isomer, unassigned) [Compound 77] | > 1
18 | CC(C)n1nncc1C(=O)N[C@H](c1cn2nc(CC3C[C@@H](C(F)(F)F)CNC3=O)ccc2n1)C1CCC(F)(F)CC1 (stereo partly drawn) [Compound 107, N-((1S)-(4,4-difluorocyclohexyl)(6-(((5R)-2-oxo-5-(trifluoromethyl)piperidin-3-yl)methyl)imidazo[1,2-b]pyridazin-2-yl)methyl)-1-isopropyl-1H-1,2,3-triazole-5-carboxamide] | 0.1 to 1
19 | Cc1nonc1C(=O)N[C@H](c1cn2nc(C[C@H]3CCCNC3=O)ccc2n1)C1CCC(F)(F)CC1 [Compound 38, N—((S)-(4,4-difluorocyclohexyl)(6-(((R)-2-oxopiperidin-3-yl)methyl)imidazo[1,2-b]pyridazin-2-yl)methyl)-4-methyl-1,2,5-oxadiazole-3-carboxamide] | > 1
20 | Cc1nonc1C(=O)N[C@H](c1cn2nc(C[C@H]3C[C@@H](C(F)(F)F)NC3=O)ccc2n1)C1CCC(F)(F)CC1 [Compound 18, N—((S)-(4,4-difluorocyclohexyl)(6-(((3R,5S)-2-oxo-5-(trifluoromethyl)pyrrolidin-3-yl)methyl)imidazo[1,2-b]pyridazin-2-yl)methyl)-4-methyl-1,2,5-oxadiazole-3-carboxamide] | > 1
21 | CCn1nccc1C(=O)N[C@H](c1cn2nc(CC3C[C@@H](C(F)(F)F)CNC3=O)c(COC)cc2n1)C1CCC(F)(F)CC1 (stereo partly drawn) [Compound 84, N-((1S)-(4,4-difluorocyclohexyl)(7-(methoxymethyl)-6-(((5R)-2-oxo-5-(trifluoromethyl)piperidin-3-yl)methyl)imidazo[1,2-b]pyridazin-2-yl)methyl)-1-ethyl-1H-pyrazole-5-carboxamide] | 0.1 to 1
22 | CC1(c2nocc2C(=O)N[C@H](c2cn3nc(CC4C[C@@H](C(F)(F)F)CNC4=O)ccc3n2)C2CCC(F)(F)CC2)CC1 (stereo partly drawn) [Compound 123, N-((1S)-(4,4-difluorocyclohexyl)(6-(((5R)-2-oxo-5-(trifluoromethyl)piperidin-3-yl)methyl)imidazo[1,2-b]pyridazin-2-yl)methyl)-3-(1-methylcyclopropyl)isoxazole-4-carboxamide] | 0.1 to 1
